In patent US8883798B2, “Pyrimidine compounds inhibiting the formation of nitric oxide and prostaglandin E2, method of production thereof and use thereof” (Ustav Organicke Chemie a Biochemie Akademie Ved CR, V.V.I., priority 2011, dated 2014):

Tests used:
[1] = system: human umbilical vein endothelial cells (HUVEC); test: Tube formation assay of HUVEC on Matrigel (in vitro angiogenesis); format: cell-based; conditions: 8 h
Description: This so called “Tube Formation Assay” is a method based on the ability of endothelial cells to form capillary-like tubular structures when cultured on Matrigel™ (a gel of basement membrane extract—their natural substrate). The process of capillary-like tube formation includes endothelial cell attachment, migration, and differentiation into tubules. In this experiment, treatment with tested compounds started at the time of seeding HUVEC onto Matrigel and the extent of tubule development was observed after an 8 h time period. Disruption of tube formation was then assessed through observation of the tubular network and direct comparison to solvent-only controls. The quantitative and qualitative measurement of tubular network complexity was performed using web-based S.CORE imaging software and expressed by means of number of tubes, their total length, quality, number of branching points, etc. All these parameters were integrated into “tube formation index” which corresponds to the degree of complexity of tubular network. […] At a 10 μmol/L concentration, compound 23 reduced tube formation by >90%. […] Apoptosis in HUVECs (at ˜70% confluency) treated with or without varying concentrations (relevant for the tube formation assay) of tested substances was assessed by a combination of Annexin V and JC-1 staining. After 8 h of these treatments, cells were collected, and the cell population undergoing apoptosis was identified by double-parameter flow cytometry using annexin V and the vital dye propidium iodide (PI). Mitochondrial membrane potential in treated endothelial cells was measured using the lypophilic probe JC-1, which aggregates in healthy mitochondria and fluoresces red, but diffuses in the cytoplasm and fluoresces green upon mitochondrial damage. In both cases, quantification of apoptotic cells were conducted in BD FACSDiva software.

[2] = system: production of prostaglandin E2 (PGE2); test: Production of prostaglandin E2 (PGE2) in cultures of mouse peritoneal cells stimulated with LPS (ELISA kit); format: cell-based, mice; conditions: Table 3A, substance 50 μmol·l^−1, 6 h
In short: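 C57BL/6 mouse peritoneal cells (3×10^6/mL) stimulated with LPS (10 ng/mL). PGE2 measured by ELISA.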

HUVEC = HUVEC cell proliferation (XTT assay); format: cell-based, human; conditions: 10 to 50 μmol/L, 8 hours
peritoneal cells of mice = test: Cell viability of mouse peritoneal cells (WST-1 kit); format: cell-based; conditions: Table 3A, substance 50 μmol·l^−1, 24 h
In short: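 C57BL/6 mouse peritoneal cells (1×10^6/mL) cultured 24 h with compounds at 50 μmol·l^−1. Viability read with WST-1 tetrazolium salt and expressed as percent of untreated control cells (100%).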

[3] = system: production of nitric oxide (NO); test: Production of nitric oxide (NO) in cultures of mouse peritoneal cells stimulated with IFN-γ plus LPS (Griess reagent); format: cell-based, mice; conditions: Table 3A; substance 50 μmol·l^−1; IFN-g plus LPS; 24 h
In short: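 C57BL/6 mouse peritoneal cells (2×10^6/mL) stimulated with IFN-γ (5000 pg/mL) plus LPS (100 pg/mL), compounds at 50 μmol·l^−1. Nitrite measured by Griess reagent after 24 h, expressed as % of stimulated control (set 100%); IC50 is concentration reducing NO by 50%.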

[4] = system: Salmonella typhimurium TA 98 and TA 100, Escherichia coli WP2 uvrA; conditions: all strains, all tested concentrations, with and without metabolic activation
Method: With compound 28, its possible mutagenicity (genotoxicity) was assessed using the standard bacterial reverse mutation test. According to Council Regulation (ES) No. 440/2008, stipulating the test methods according to the European Parliament and Council regulation (ES), the method used was B.13/14, Mutagenicity—Reverse Mutation Test Using Bacteria, which is described in the same way also in the OECD Test Guideline No. 471.
[…] The experiments were conducted without using metabolic activation and after activation with supernatant S9 from […] livers and with mixtures of cofactors (NADP and glucoso-6-phosphate) to determine the mutagenicity of the metabolic products of the compound tested. Supernatant S9 was prepared according to the literature [Mutat. Res. 113, 173-215, 1983].
The principle of the test is to detect possible revertants created by reverse mutation, which would be induced in the bacterial culture by the tested compound. Specially constructed bacterial strains are used, carrying mutations in the place for his (trp), which are not capable of forming colonies on the minimum plates without histidine or tryptophan. […] Mutagenic potential is given by the growing number of revertants in the influenced groups in comparison with a negative control, and/or in dependence on the growing number of revertants on the dose of the tested compound.
Bacterial testers, types Salmonella typhimurium TA 98 (CCM 3811) and Escherichia coli WP2 uvrA (CCM 4751), were acquired from the Czech Collection of Microorganisms of Masaryk University, Brno and the strain Salmonella typhimurium TA100 (CIP 103796, lot No. 1008) from the Biological Resource Center, Institut Pasteur in Paris (CRBIP).

SMILES: CCCCc1c(Cl)nc(N=CN(C)C)nc1Cl [Substance 19]
- Effect on tube formation ([1]; 10 μmol/L): no inhibitory activity was detectable
- Effect on tube formation ([1]; 25 μmol/L): Partial differentiation
- Capillary tube formation [1]: inhibited capillary tube formation in a dose dependent manner
- Production of prostaglandins in % of the controls [2]: 14.93 ± 3.11 % of the controls
- HUVEC cell proliferation (HUVEC): did not influence HUVEC cell proliferation
- Cell viability in % of the controls (peritoneal cells of mice): 123.21 ± 21.43 % of the controls
- Production of nitric oxide in % of the controls [3]: 2.99 ± 0.53 % of the controls

SMILES: CN(C)C=Nc1nc(Cl)c(Cc2ccccc2)c(Cl)n1 [Substance 23]
- Effect on tube formation ([1]; 10 μmol/L): tube disruption
- Reduction of tube formation ([1]; 10 μmol/L): > 90%
- Capillary tube formation [1]: inhibited capillary tube formation in a dose dependent manner
- Concentration from which antiangiogenic activity was apparent [1]: ≥ 5 µmol/L
- Production of prostaglandins in % of the controls [2]: 3.05 ± 1.26 % of the controls
- HUVEC cell proliferation (HUVEC): did not influence HUVEC cell proliferation
- Cell viability in % of the controls (peritoneal cells of mice): 96.24 ± 11.9 % of the controls
- Production of nitric oxide in % of the controls [3]: 4.41 ± 0.59 % of the controls

SMILES: CC(C)c1c(Cl)nc(NC=O)nc1Cl [Substance 53]
- Effect on tube formation ([1]; 10 μmol/L): only limited effect
- Incomplete tube formation ([1]; 25 μmol/L): ~46%
- Capillary tube formation [1]: inhibited capillary tube formation in a dose dependent manner
- Production of prostaglandins in % of the controls [2]: 8.57 ± 0.99 % of the controls
- HUVEC cell proliferation (HUVEC): did not influence HUVEC cell proliferation
- Cell viability in % of the controls (peritoneal cells of mice): 60.02 ± 0.29 % of the controls
- Production of nitric oxide in % of the controls [3]: 0.70 ± 0.22 % of the controls

SMILES: Nc1nc(Cl)c(Cc2ccccc2)c(Cl)n1 [Substance 34]
- Mutagenicity (reverse mutation) [4]: non-mutagenous
- Production of prostaglandins in % of the controls [2]: 3.71 ± 2.00 % of the controls
- Cell viability in % of the controls (peritoneal cells of mice): 105.92 ± 20.65 % of the controls
- Production of nitric oxide in % of the controls [3]: 50.57 ± 9.31 % of the controls
